Laboratory results taken from patent US10123904B2, “Preservative removal from eye drops” (University of Florida Research Foundation, Inc., priority 2014, dated 2018).
Where a name gives a salt, the structure may show the parent alone. Read-outs that look alike come from different tables or passages of the source. Marks after values point to notes of the source that are not given here. Blank lines part the entries; values can stand above or below the molecule they belong to.

Experiments:
[1] = Partition coefficient of drugs and BAK in macroporous pHEMA gel; type: physicochemical; conditions: for Partition coefficient in macroporous pHEMA gel: 250 mg gel soaked in 12 mL drug or BAK solution in PBS, 15 days, mean ± SD, n = 3; for Partition coefficient smaller than that of BAK: macroporous pHEMA gel
Protocol: As indicated above, the absorption percentage of hydrophilic drug is small, whereas a significant amount of hydrophobic drug is uptake by the macroporous pHEMA gel. The high affinity of hydrophobic drug to the gel can be determined by measuring the partition coefficient of the drug in the gel. To measure the partition coefficient, a piece of macroporous pHEMA gel of 250 mg was soaked in 12 mL of drug or BAK solution. After 15 days of soaking, the concentration of the drug or BAK solution was measured by using UV-Vis spectrophotometry. The drug or BAK concentration after soaking indicated the amount of drug or BAK in reference to the initial concentration is that absorbed into the gel. The partition coefficient of timolol and dorzolamide in macroporous pHEMA gel is roughly 15 times smaller than that of BAK, which is excellent separation efficiency. In contrast, the partition coefficients of latanoprost and BAK are pretty high and the separation efficiency of the gel for this mixture is poor.

[2] = BAK/drug removal by macroporous pHEMA gel plug packed in syringe, 10 consecutive passes; type: physicochemical; conditions: for Drug adsorption percentage: first pass through the 10th pass, macroporous pHEMA gel; for Percentage removed/absorbed after passing through plug: 2.5 mL through 5 mm macroporous pHEMA gel, 1 cm syringe
Protocol: The four drugs were dissolved in PBS and mixed with BAK individually. The macroporous pHEMA hydrogel prepared as above, was used as the BAK removal filter and packed into the syringe, as described above. The experimental setup is that of FIG. 3. […] The solution that passed through the filter plug was collected and the concentration of drug/BAK was determined by measuring the UV-Vis spectra. The measured UV spectrum was a linear combination of the testing drug and BAK and thus, the individual concentration of the drug and BAK could be determined by applying a least square fit method as described in Kim et al. Int. J.

[3] = BAK/drug removal by crushed macroporous pHEMA particles packed in syringe, passes separated by 24 hours; type: physicochemical
Protocol: Macroporous pHEMA hydrogel as prepared above was dried in the oven of 80° C. and crushed into particles and the particles packed into the syringe. Two pieces of filter papers were placed at the bottom of the syringe to prevent the packing particles from leaking out. Particles facilitate packing of a hydrogel into the neck of the eye drop bottle where packing is amenable to high-throughput industrial scale loading of gel filters. […] The process was timed using a stopwatch from the moment of placing the weight to the last drop entered the beaker. The weight of the collected solution in the beaker was measured to calculate the flow rate through the pHEMA particles. […] The UV spectrum of the collected solution was measured and the individual concentration of the drug and BAK were determined by a least square fit method as described in Kim et al., Int. J. […] After each measurement, the bottom outlet of the syringe was sealed with parafilm to prevent dehydration of the packed pHEMA particles in the manner equivalent to sealing the eye drop bottle with the cap after use.

[4] = Partition coefficient in pHEMA particles prepared using SR9035 as cross-linker; type: physicochemical; conditions: 100 mg particles soaked in 3.5 mL solution, 9 days
Protocol: The partition coefficients of timolol, CMC and BAK in pHEMA particles prepared using SR9035 as cross-linker was measured. pHEMA particles (100 mg) were soaked in 3.5 mL of timolol, CMC and BAK solution, which concentration was 0.08 mg/mL, 0.5% and 2.4 mg/mL, respectively. After 9 days of soaking, the concentration of the drug or BAK solution was measured by using UV-Vis spectrophotometry. The drug or BAK concentration after soaking indicated the amount of drug or BAK that absorbed into the gel relative to the initial concentration. The partition coefficient of timolol and CMC in pHEMA particles is much smaller than that of BAK, and should have excellent separation efficiency.

[5] = Timolol/BAK separation by pHEMA particles with SR454HP cross-linker in eye drop bottle prototype; type: physicochemical
Excerpt: (§1) More rigid and larger size particles create a larger void space for fluid to flow and improved hydraulic permeability. […] This would be undesirable because the plug is drug at the time of the instillation of the first drop but then could be partially or fully hydrated for subsequent instillations, depending on whether the plug retains the fluid in the interim time between successive instillations. […] During the UV curing, the mixture was continuously stirred by a 35×6 mm magnetic stirring bar at 70 rpm. In addition, the petri dish was covered to avoid water evaporation and oxygenation. After polymerization, the pHEMA gel were separated from the solution by vacuum filtration method and washed with a large quantity of DI water to remove the unreacted monomers and other impurities. The pHEMA gel was then dried in an oven of 80° C. and crushed into particles in a mortar. Selectivity of the separation of BAK from timolol was measured. […] A constant pressure drop was applied across the packed particles to maintain a constant flow rate through the plug. […] The UV spectrum of the outlet solution was measured and the concentrations of the drug and BAK were determined by the least square fit method described in Kim et al., Int. J. […] The tip of the prototype bottle was sealed with parafilm. […] The step was repeated 10 times over a total of 10 days.

[6] = Timolol/BAK separation by heat-initiated pHEMA particles in eye drop bottle prototype; type: physicochemical
Protocol: FIG. 24 indicates the percentages of BAK and timolol that were absorbed after the mixture in solution was passed through the heat-initiated pHEMA particles, shown in FIG. 18. […] The hydraulic permeability of the packing particles is 0.0459 Darcy which was measured as described, above. […] The size of the particles prepared by UV or heat-initiated polymerization is similar. […] The drug/BAK solution was injected into the prototype bottle with a syringe. […] The UV spectrum of the outlet solution was measured and the individual concentration of the drug and BAK was determined by a least square fit method as described in Kim et al., Int. J.

[7] = Timolol/BAK separation by UV-initiated pHEMA particles (EGDMA) in eye drop bottle prototype; type: physicochemical
Excerpt: The sodium chloride promoted phase separation of the mixture. Small globules containing HEMA monomer and EGDMA was formed by continuously stirring the system at high rpm. […] In addition, the petri dish was covered to avoid water evaporation and oxygenation. After the polymerization, the pHEMA particles were separated from the solution by vacuum filtration method and washed with a large quantity of DI water to remove the unreacted monomers and other impurities. The particles were then dried in an oven of 80° C. […] The synthesized particles were packed in the prototype bottle and tested for their selectivity of separation of BAK from timolol. […] The drug/BAK solution was injected into the prototype bottle with a syringe. A clip was applied to the bottle to impose a constant pressure drop. […] The UV spectrum of the outlet solution was measured and the concentrations of the drug and BAK were determined by the least square fit method described in Kim et al., Int. J. Pharm., 2008, Apr. 2; 353(1-2):205-22. Five samples were successively removed through the plug.

[8] = Timolol/BAK separation by pHEMA particles with SR9035 cross-linker in eye drop bottle prototype; type: physicochemical
Excerpt: as §1

[9] = Partition coefficient of BAK in pHEMA particles prepared by heat-initiated polymerization; type: physicochemical
[10] = Binding of BAK and drugs to pHEMA matrix (general statement); type: physicochemical
[11] = 3 consecutive runs; hydrogel treated with 1% MAA
Protocol: The hydrogel was packed into the syringe as BAK removal filter and its separation efficiency of BAK from dexamethasone was tested in the same manner as the copolymer.

[12] = Latanoprost/BAK separation by crushed macroporous pHEMA particles in eye drop bottle prototype; type: physicochemical; conditions: all 10 runs over 10 days; 1.5 mL, 8 mm plug, particles pre-equilibrated with latanoprost
Protocol: The crushed macroporous pHEMA particles were prepared as described above. The particles were packed in the eye drop bottle prototype (FIG. 19) to test its selectivity of separation of BAK from latanoprost. The concentration of latanoprost and BAK prepared for the testing were both 0.03 mg/mL with PBS as the solvent. The drug/BAK solution was injected into the prototype bottle with a syringe. A clip was clipping on the bottle to create a constant pressure drop across the packing pHEMA particles of 8 mm in length. A volume of 1.5 mL of the drug/BAK solution was passed through the filter by squeezing the bottle. The UV spectrum of the outlet solution was measured and the individual concentration of the drug and BAK was determined by a least square fit method as described in Kim et al., Int. J. Pharm., 2008, Apr. 2; 353(1-2):205-22. The tip of the prototype bottle was sealed with parafilm. After 24 hours, another 1.5 mL drug/BAK solution was removed through the same filter and again to measure the concentrations of the drug and BAK. The step was repeated 10 times over a total of 10 days.

Molecule: CCN[C@H]1C[C@H](C)S(=O)(=O)c2sc(S(N)(=O)=O)cc21 [Dorzolamide, dorzolamide hydrochloride]
Partition coefficient in macroporous pHEMA gel [1]: 7.59 ± 0.56
Partition coefficient smaller than that of BAK [1]: roughly 15 times
Drug adsorption percentage [2]: about 5%

Molecule: Benzalkonium chloride [BAK]
Partition coefficient of BAK in pHEMA particles prepared by heat-initiated polymerization [9]: 200-250
Adsorption time on pHEMA ([10]; compared with transit time through plug): < 3 s
Partition coefficient into the pHEMA matrix ([10]; depending on BAK concentration and structure of the pHEMA matrix): 100-500
Percentage of BAK removed [11]: ~100%
Partition coefficient in pHEMA particles prepared by using SR9035 as cross-linker [4]: ~300
Percentage removed ([5]; after the 5th run): about 90%
Percentage removed ([5]; first 3-5th runs, 1.5 mL daily, 1.8 cm plug): ~100%
Percentage of BAK removed ([3]; all 10 passes, each separated by 24 hours, regardless of the drug in the solution): ~100%
Percentage removed ([6]; each of 10 passes carried out successively, 1.5 mL, 8 mm plug): ~100%
Percentage removed ([7]; 5th run, 1.5 mL, 8 mm plug): 30%
Percentage removed ([7]; first pass, 1.5 mL, 8 mm plug): Roughly 50%
Percentage removed ([8]; 10th run): about 95%
Percentage removed ([8]; first 6th runs, 1.5 mL daily, 1.8 cm plug): ~100%
Percentage removed/absorbed after passing through plug ([2]; 10th pass): 70-80%
Percentage removed/absorbed after passing through plug ([2]; first run): 100%
Percentage of BAK removed [12]: ~100%

The next lines start with the values.

Partition coefficient in macroporous pHEMA gel [1]: 33.53 ± 1.31
Molecule: C[C@@H]1C[C@H]2[C@@H]3CCC4=CC(=O)C=C[C@]4(C)[C@@]3(F)[C@@H](O)C[C@]2(C)[C@@]1(O)C(=O)CO [Dexamethasone, dexamethasone]

Partition coefficient in macroporous pHEMA gel [1]: 90.18 ± 1.36
Portion of drug absorbed ([3]; particles pre-equilibrated with the corresponding drug solution): only a very small portion
Percentage removed/absorbed after passing through plug ([2]; 10th pass): 30%
Percentage removed/absorbed after passing through plug ([2]; first run): 90%
Molecule: CC(C)OC(=O)CCC/C=C\C[C@@H]1[C@@H](CC[C@@H](O)CCc2ccccc2)[C@H](O)C[C@@H]1O [Latanoprost, latanoprost]

Partition coefficient in macroporous pHEMA gel [1]: 6.49 ± 0.37
Partition coefficient smaller than that of BAK [1]: roughly 15 times
Partition coefficient in pHEMA particles prepared by using SR9035 as cross-linker [4]: 5.59 ± 0.13^a
Percentage removed ([5]; 1st run): About 18%
Amount removed ([5]; 10th run): negligible
Percentage removed ([6]; 1st run): About 17%
Percentage removed ([6]; 10th run): about 3%
Percentage removed ([7]; each of the 5 runs): about 1.5%
Percentage removed ([8]; 1st run): About 25%
Amount removed ([8]; after the 5th run): negligible
Drug adsorption percentage [2]: about 5%
Molecule: CC(C)(C)NC[C@H](O)COc1nsnc1N1CCOCC1 [Timolol, timolol maleate]
